Experimental data: patent publication US20090163474A1, “FXR Agonists for the Treatment of Nonalcoholic Fatty Liver and Cholesterol Gallstone Diseases” (Wyeth, priority 2007, published 2009)

Legend:
Type in all cases: in vivo
[1] = test system: mice with preformed gallstones; test: Gallbladder bile lipid composition, preformed gallstones
Description: (§1) Disrupted cholesterol, phospholipid, and bile salt homeostasis contributes to the formation of gallstones. Gallbladder bile lipid composition was quantitated from mice treated as follows. A group of mice (CHOW) was fed a standard chow diet. Another group of mice was fed a Paigen diet and administered vehicle (Paigen/Vehicle) or 30 mg/kg Compound A (Paigen/Compound A) orally once a day for 4 weeks. To preform gallstones, mice were fed initially a Paigen diet for 4 weeks and subsequently fed a standard chow diet and administered vehicle (Preformed/Vehicle) or 30 mg/kg Compound A (Preformed/Compound A) orally once a day for 4 weeks. […] Data are presented as the mean±SE.

[2] = test system: C57BL/6 mice fed a Paigen diet; test: Paigen diet fed mice: serum, liver gene expression and liver histology; conditions: 30 mg/kg orally once a day for 4 weeks
Description: Male C57BL/6 mice were fed a standard chow diet or a Paigen diet (TestDiet 32350 containing 7.5% Cocoa Butter, 1.25% cholesterol, and 0.5% cholic acid). Paigen diet fed mice were administered vehicle or 30 mg/kg FXR agonist, Compound A (isopropyl 3-(3,4-difluorobenzoyl)-1,1-dimethyl-1,2,3,6-tetrahydroazepino[4,5-b]indole-5-carboxylate) orally once a day for 4 weeks. Three hours after the final treatment, mice were euthanized and blood and liver were collected for analyses.
Real-time RT PCR analysis of liver RNA was performed. FIGS. 3A, 3B, and 3C show the expression levels of vascular cell adhesion molecule 1 (VCAM-1), intercellular adhesion molecule-1 (ICAM-1), and tumor necrosis factor α (TNFα). Expression levels were normalized to GAPDH, and the mean level of expression of each gene in mice fed a standard chow diet was defined as 1.0. 6 mice were tested in each group. Data are presented as the mean±SE.
Male C57BL/6 mice were fed a chow diet or a Paigen diet. Paigen fed mice were administered vehicle or 30 mg/kg Compound A orally once a day for 4 weeks. Three hours after the final treatment, mice were euthanized, and histological analysis of livers was performed. Frozen liver sections (5 μm) were prepared and stained with Oil Red O, hematoxylin and eosin (H&E), and Masson's trichrome (Trichrome).
Male C57BL/6 mice were fed a chow diet or a Paigen diet. Paigen fed mice were administered vehicle or 30 mg/kg Compound A orally once a day for 4 weeks. Three hours after the final treatment, mice were euthanized, and real-time RT PCR analysis of liver RNA was performed.

[3] = test system: C57Bl/6 mice fed a MCD diet (preformed NASH); test: Preformed NASH in MCD diet fed mice; conditions: MCD diet 2 weeks
Text: C57Bl/6 mice were fed a MCD diet for 2 weeks to induce the development of NASH to study the effect of Compound A treatment on preformed NASH. These mice were then maintained on the MCD diet while being treated with vehicle or Compound A. Mice were euthanized 2 weeks (2 w), and 4 weeks (4 w) after the beginning of treatment with vehicle or Compound A for analysis. As controls, mice were fed a chow diet or fed a MCD diet for 2 weeks, and then euthanized for analysis.

mice fed a Paigen diet [4] = test: Gallstone formation in Paigen diet fed mice; conditions: 30 mg/kg orally once a day for 4 weeks
Description: To study gallstone formation, gallbladders were harvested from mice fed a Paigen diet and administered vehicle or 30 mg/kg Compound A orally once a day for 4 weeks.

[5] = test system: wildtype (WT) mice fed a MCD diet; test: MCD diet, wildtype mice (WT vs FXRKO study); conditions: 30 mg/kg orally once a day for 4 weeks
Description: (§2) Mice were fed a standard chow diet or a MCD diet and treated with either vehicle or 30 mg/kg Compound A orally once a day for 4 weeks.

[6] = test system: FXR deficient (FXRKO) mice fed a MCD diet; test: MCD diet, FXR deficient mice (WT vs FXRKO study); conditions: 30 mg/kg orally once a day for 4 weeks
Description: as §2

[7] = test system: Wildtype mice challenged with LPS; test: LPS-induced liver acute phase response, wildtype mice; conditions: 30 mg/kg for 4 days; 2.5 micrograms LPS, 4 hours; P<0.01
Description: Wildtype and FXR deficient mice were treated with Compound A (30 mg/kg) or vehicle for 4 days. On day 4, mice were challenged with 2.5 micrograms of lipopolysaccharide (LPS) to induce an acute phase response. After 4 hours, the mice were euthanized and their livers were harvested for analysis of expression of various factors. […] Compound A attenuated the LPS-induced murine liver acute phase response. […] (*P<0.01, WT/LPS/V vs. WT/LPS/Compound A).

mice fed a Paigen diet [8] = test: Gallbladder bile lipid composition, Paigen diet with treatment
Description: as §1

[9] = Preformed/Compound A vs Preformed/Vehicle
[10] = Preformed/Compound A, Paigen diet 4 weeks, then chow and 30 mg/kg orally once a day for 4 weeks, mean±SE
[11] = RT PCR, normalized to GAPDH, p<0.0001
[12] = then 2-week (P<0.001) and 4-week (P<0.01) treatment on MCD diet
[13] = then 2-week and 4-week treatment on MCD diet, P<0.01
[14] = Paigen/Compound A vs Paigen/Vehicle
[15] = Paigen/Compound A, 30 mg/kg orally once a day for 4 weeks, mean±SE

Compound: CC(C)OC(=O)C1=CN(C(=O)c2ccc(F)c(F)c2)CC(C)(C)c2c1[nH]c1ccccc21 [Compound A, isopropyl 3-(3,4-difluorobenzoyl)-1,1-dimethyl-1,2,3,6-tetrahydroazepino[4,5-b]indole-5-carboxylate]
- bile cholesterol level vs vehicle [1, 9]: higher
- bile phospholipid level vs vehicle [1, 9]: higher
- bile salt level vs vehicle [1, 9]: Lower
- BS (bile salt) in gallbladder bile [1, 10]: 120.06 ± 14.28 mM
- CE (cholesterol) in gallbladder bile [1, 10]: 7.54 ± 0.86 mM
- PL (phospholipids) in gallbladder bile [1, 10]: 27.54 ± 2.14 mM
- bile salt/phospholipid ratio vs vehicle ([1]; mice with preformed gallstones): significantly decreased
- Paigen diet induced liver damage (histological analyses) [2]: attenuated Paigen diet induced liver damage
- intracellular vacuoles characteristic of lipid droplets in liver (H&E and Trichrome) [2]: reduced the number and severity of the vacuoles
- liver BSEP expression level, increase ([2]; Paigen diet): 2.41 fold
- liver MDR2 expression level, increase ([2]; Paigen diet): 1.4 fold
- liver SHP expression level, increase ([2]; Paigen diet): 4.85 fold
- liver ICAM-1 expression level (Paigen diet induction) [2, 11]: significantly inhibited
- liver TNFα expression level (Paigen diet induction) [2, 11]: significantly inhibited
- liver VCAM-1 expression level (Paigen diet induction) [2, 11]: significantly inhibited
- inflammatory cholangitis with portal inflammation in liver ([2]; histology): significantly more severe in the livers of vehicle treated compared to Compound A treated mice
- serum alanine aminotransferase (ALT) activity level ([2]; mean±SE, vehicle 292.1±33.6 U/L, p<0.0001): 98.1±22.5 U/L
- serum level of MCP-1 vs vehicle ([2]; p<0.0001): significantly reduced
- neutral lipid accumulation in the liver (Oil Red O staining) ([2]; vs vehicle): reduction in neutral lipid accumulation
- liver FAS expression, further induction ([2]; vs vehicle treated Paigen diet mice, p<0.0001): 2.4 fold
- liver Col1a2 gene expression level vs vehicle [3, 12]: significantly lowered
- liver MMP-2 gene expression level vs vehicle [3, 12]: significantly lowered
- liver TIMP-1 gene expression level vs vehicle [3, 12]: significantly lowered
- liver MCP-1 gene expression level vs vehicle [3, 13]: significantly lowered
- liver VCAM-1 gene expression level vs vehicle [3, 13]: significantly lowered
- serum level of ALT vs vehicle [3, 13]: significantly reduced
- serum level of AST vs vehicle [3, 13]: significantly reduced
- cholesterol gallstones in gallbladders (gross morphology) (mice fed a Paigen diet [4]): clearly visible in the gallbladders of vehicle but not Compound A treated mice
- Gallstone formation (incidence, mice with gallstones/mice) (mice fed a Paigen diet [4]; vehicle 14/19): 0/20
- incidence of gallstone formation (mice fed a Paigen diet [4]; vehicle 73.7%): 0%
- liver TIMP-1 gene expression level vs vehicle ([5]; P<0.001): reduction
- liver VCAM-1 gene expression level vs vehicle ([5]; P<0.001): decreasing
- liver Col1a2 expression level vs vehicle ([5]; P<0.01): reduction
- serum ALT levels vs vehicle ([5]; P<0.01): decreased
- effect on liver VCAM-1 levels, FXR dependence [6]: mediated by FXR
- hepatic protective effect (serum ALT), FXR dependence [6]: mediated by FXR
- reduction of liver Col1a2, FXR dependence [6]: mediated by FXR
- reduction of liver TIMP-1, FXR dependence [6]: mediated by FXR
- reduction of liver SAA-3 levels vs vehicle [7]: 35%
- reduction of liver SAP levels vs vehicle [7]: 40%
- reduction of liver VCAM-1 levels vs vehicle [7]: 40%
- bile cholesterol level increase induced by the Paigen diet, vs vehicle (mice fed a Paigen diet [8]; [14]): attenuated the increases
- bile phospholipid level increase induced by the Paigen diet, vs vehicle (mice fed a Paigen diet [8]; [14]): attenuated the increases
- BS (bile salt) in gallbladder bile (mice fed a Paigen diet [8]; [15]): 110.42 ± 24.79 mM
- CE (cholesterol) in gallbladder bile (mice fed a Paigen diet [8]; [15]): 7.70 ± 0.28 mM
- PL (phospholipids) in gallbladder bile (mice fed a Paigen diet [8]; [15]): 20.19 ± 1.00 mM
